Assay results from PubChem BioAssay (NCI).
Where “and” joins values, the source holds several entries; their conditions need not be identical. Equal values may be shown once.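 Dose response: 5 concentrations. Exposure: 48 h. Format: 96-well plates. Endpoint: linear interpolation; highest concentration if not reached. GI50 marks 50% less growth. The concentration for full growth arrest is given as TGI.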

Assays:
Assay in all cases: DTP human tumour cell line panel, 48 h
SF-539 CNS = system: SF-539 CNS
DU-145 prostate = system: DU-145 prostate
BT-549 breast = system: BT-549 breast
NCI-H23 lung = system: NCI-H23 lung
M14 melanoma = system: M14 melanoma
U251 CNS = system: U251 CNS
OVCAR-5 ovarian = system: OVCAR-5 ovarian
NCI-H226 lung = system: NCI-H226 lung
OVCAR-4 ovarian = system: OVCAR-4 ovarian
UACC-257 melanoma = system: UACC-257 melanoma

O=C1c2ccccc2C(O)(O)C1(O)C1(O)C(=O)c2ccccc2C1(O)O (stereo not drawn)
TGI (SF-539 CNS): > 100 µM | TGI (DU-145 prostate): > 100 µM | TGI (BT-549 breast): > 100 µM | TGI (NCI-H23 lung): 38.2 µM | TGI (M14 melanoma): > 100 µM | TGI (U251 CNS): > 100 µM | TGI (OVCAR-5 ovarian): > 100 µM | TGI (NCI-H226 lung): > 100 µM | TGI (OVCAR-4 ovarian): > 100 µM

CCN(CC)CCCCNc1c2ccccc2[n+](C)c2c1[nH]c1ccccc12
GI50 (SF-539 CNS): 0.473 µM | TGI (SF-539 CNS): 1.74 µM | GI50 (DU-145 prostate): 0.182 µM | TGI (DU-145 prostate): 11.5 µM | GI50 (UACC-257 melanoma): 0.84 µM | TGI (UACC-257 melanoma): 2.4 µM | GI50 (BT-549 breast): 1.67 µM | TGI (BT-549 breast): 4.15 µM | GI50 (NCI-H23 lung): 0.221 µM | TGI (NCI-H23 lung): 1.07 µM | GI50 (M14 melanoma): 1.41 µM | TGI (M14 melanoma): 4.64 µM | GI50 (U251 CNS): 0.238 µM | TGI (U251 CNS): 4.46 µM | GI50 (OVCAR-5 ovarian): 1 µM | TGI (OVCAR-5 ovarian): 11.5 µM | GI50 (NCI-H226 lung): 0.202 µM | TGI (NCI-H226 lung): 1.18 µM | GI50 (OVCAR-4 ovarian): 0.345 µM | TGI (OVCAR-4 ovarian): 2.57 µM

CCC1C2Cc3ccc(O)cc3C1(CC)CCN2C (stereo not drawn)
TGI (SF-539 CNS): > 100 µM | TGI (DU-145 prostate): > 100 µM | TGI (UACC-257 melanoma): > 100 µM | TGI (BT-549 breast): > 100 µM | TGI (NCI-H23 lung): > 100 µM | TGI (M14 melanoma): > 100 µM | TGI (U251 CNS): > 100 µM | TGI (OVCAR-5 ovarian): > 100 µM | TGI (NCI-H226 lung): > 100 µM | TGI (OVCAR-4 ovarian): > 100 µM

COc1cc2ccc(/C=C\[N+](=O)[O-])cc2cc1OC
TGI (SF-539 CNS): 4.91 µM | TGI (DU-145 prostate): 4.39 µM | TGI (UACC-257 melanoma): > 22.9 µM | TGI (BT-549 breast): 5.74 µM | TGI (NCI-H23 lung): 6.98 µM | TGI (M14 melanoma): 7.41 µM | TGI (U251 CNS): 9.87 µM | TGI (OVCAR-5 ovarian): 30.3 µM | TGI (NCI-H226 lung): 76.5 µM | TGI (OVCAR-4 ovarian): 7.56 µM

COC(=O)/C(C)=C(/CCC1(C)OCCO1)O[Si](C)(C)C
TGI (SF-539 CNS): > 100 µM | TGI (UACC-257 melanoma): > 100 µM | TGI (NCI-H23 lung): > 100 µM | TGI (M14 melanoma): > 100 µM | TGI (U251 CNS): > 100 µM | TGI (OVCAR-5 ovarian): > 100 µM | TGI (OVCAR-4 ovarian): > 100 µM

CCC[CH2][Sn]1([CH2]CCC)[O]C(=O)c2cccnc2[O]1
GI50 (SF-539 CNS): 1.87 µM | TGI (SF-539 CNS): 4 µM | GI50 (UACC-257 melanoma): 1.55 µM | TGI (UACC-257 melanoma): 5.04 µM | GI50 (NCI-H23 lung): 1.33 µM | TGI (NCI-H23 lung): 2.99 µM | GI50 (M14 melanoma): 3.11 µM | TGI (M14 melanoma): 10.6 µM | GI50 (U251 CNS): 1.89 µM | TGI (U251 CNS): 3.79 µM | GI50 (OVCAR-5 ovarian): 11.9 µM | TGI (OVCAR-5 ovarian): 24.2 µM | GI50 (NCI-H226 lung): 10.5 µM | TGI (NCI-H226 lung): 23 µM | GI50 (OVCAR-4 ovarian): 1.65 µM | TGI (OVCAR-4 ovarian): 8.57 µM

CCc1cc(C(=O)OC)cn1C(=N)c1ccc(Cl)cc1
TGI (SF-539 CNS): > 100 µM | TGI (UACC-257 melanoma): > 100 µM | TGI (NCI-H23 lung): > 100 µM | TGI (M14 melanoma): > 100 µM | TGI (U251 CNS): > 100 µM | TGI (OVCAR-5 ovarian): > 100 µM | TGI (NCI-H226 lung): > 100 µM | TGI (OVCAR-4 ovarian): > 100 µM

Cc1cc(=O)n(-c2ccccc2C)c(C)n1
TGI (SF-539 CNS): > 100 µM | TGI (UACC-257 melanoma): > 100 µM | TGI (NCI-H23 lung): > 100 µM | TGI (M14 melanoma): > 100 µM | TGI (U251 CNS): > 100 µM | TGI (OVCAR-5 ovarian): > 100 µM | TGI (NCI-H226 lung): > 100 µM | TGI (OVCAR-4 ovarian): > 100 µM

COc1ccc2cc(C(=O)/C=C/c3ccc(Cl)cc3Cl)ccc2c1
GI50 (SF-539 CNS): 3.98 µM | TGI (SF-539 CNS): 13.7 µM | GI50 (DU-145 prostate): 23 µM | TGI (DU-145 prostate): 62.1 µM | GI50 (UACC-257 melanoma): 20 µM | TGI (UACC-257 melanoma): 55 µM | GI50 (BT-549 breast): 0.963 µM | TGI (BT-549 breast): 4.6 µM | GI50 (NCI-H23 lung): 20.5 µM | TGI (NCI-H23 lung): 53.4 µM | GI50 (M14 melanoma): 8.75 µM | TGI (M14 melanoma): 28 µM | GI50 (U251 CNS): 16.7 µM | TGI (U251 CNS): 36.2 µM | GI50 (OVCAR-5 ovarian): 48.4 µM | TGI (OVCAR-5 ovarian): > 100 µM

COc1cc2c(c(OC)c1OC)-c1ccc(SC)c(=O)cc1C(CO)C2 (stereo not drawn)
GI50 (SF-539 CNS): < 0.01 µM | GI50 (UACC-257 melanoma): 3.45 µM | TGI (UACC-257 melanoma): > 100 µM | GI50 (NCI-H23 lung): < 0.01 µM | TGI (NCI-H23 lung): < 0.01 µM | GI50 (M14 melanoma): < 0.01 µM | TGI (M14 melanoma): < 0.01 µM | GI50 (U251 CNS): < 0.01 µM | TGI (U251 CNS): 0.728 µM and 0.111 µM | GI50 (OVCAR-5 ovarian): > 100 µM | TGI (OVCAR-5 ovarian): > 100 µM | GI50 (NCI-H226 lung): < 0.01 µM | TGI (NCI-H226 lung): 0.59 µM and 0.138 µM | GI50 (OVCAR-4 ovarian): < 0.01 µM | TGI (OVCAR-4 ovarian): > 100 µM

Cc1ccc2nc(NC(=O)C(=O)C(C#N)c3nc4ccccc4s3)sc2c1 (stereo not drawn)
TGI (SF-539 CNS): 40.7 µM | TGI (UACC-257 melanoma): 87.6 µM | TGI (NCI-H23 lung): 83.9 µM | TGI (M14 melanoma): > 100 µM | TGI (U251 CNS): > 100 µM | TGI (OVCAR-5 ovarian): > 100 µM | TGI (NCI-H226 lung): 89.3 µM | TGI (OVCAR-4 ovarian): > 100 µM

CCS(CC)(CC)CC1CCCC2=CCC(P(=O)(c3ccccc3)c3ccccc3)CC21 (stereo not drawn)
TGI (SF-539 CNS): 27.3 µM | TGI (NCI-H23 lung): 25.6 µM | TGI (M14 melanoma): 25.6 µM | TGI (U251 CNS): 23.1 µM | TGI (OVCAR-5 ovarian): 30.4 µM | TGI (NCI-H226 lung): 39.6 µM | TGI (OVCAR-4 ovarian): 26 µM

Cc1ccc(S(=O)(=O)OC2CSS(=O)CC2OS(=O)(=O)c2ccc(C)cc2)cc1 (stereo not drawn)
TGI (SF-539 CNS): 29.2 µM | TGI (UACC-257 melanoma): 28.2 µM | TGI (NCI-H23 lung): 29 µM | TGI (M14 melanoma): 27.4 µM | TGI (U251 CNS): 28.1 µM | TGI (OVCAR-5 ovarian): 32.1 µM | TGI (NCI-H226 lung): 34.4 µM | TGI (OVCAR-4 ovarian): 32.6 µM

OC(c1ccccc1)(c1ccccc1)c1ccncc1
TGI (SF-539 CNS): > 100 µM | TGI (UACC-257 melanoma): > 100 µM | TGI (NCI-H23 lung): > 100 µM | TGI (M14 melanoma): > 100 µM | TGI (U251 CNS): > 100 µM | TGI (OVCAR-5 ovarian): > 100 µM | TGI (NCI-H226 lung): > 100 µM | TGI (OVCAR-4 ovarian): > 100 µM

O=C(O)C(SC(=S)c1ccc(C(=S)SC(C(=O)O)c2ccccc2)cc1)c1ccccc1 (stereo not drawn)
TGI (SF-539 CNS): > 100 µM | TGI (UACC-257 melanoma): > 100 µM | TGI (NCI-H23 lung): > 100 µM | TGI (M14 melanoma): > 100 µM | TGI (U251 CNS): > 100 µM | TGI (OVCAR-5 ovarian): > 100 µM | TGI (NCI-H226 lung): > 100 µM

Clc1ccc(C2SCc3nc4ccccc4n32)c(Cl)c1 (stereo not drawn)
TGI (SF-539 CNS): 31.4 µM | TGI (UACC-257 melanoma): 22.2 µM | TGI (NCI-H23 lung): 25.1 µM | TGI (M14 melanoma): 28 µM | TGI (U251 CNS): 32 µM | TGI (OVCAR-5 ovarian): 30.3 µM | TGI (NCI-H226 lung): 30.4 µM

C[C@H]1[C@H](C)CC[C@]2(CO)CC[C@]3(C)C(=CC[C@@H]4[C@@]5(C)CCCNC(C)(C)[C@@H]5CC[C@]43C)[C@H]12
GI50 (SF-539 CNS): 1.69 µM | TGI (SF-539 CNS): 3.16 µM | GI50 (DU-145 prostate): 1.72 µM | TGI (DU-145 prostate): 3.14 µM | GI50 (UACC-257 melanoma): 1.95 µM | TGI (UACC-257 melanoma): 3.7 µM | GI50 (NCI-H23 lung): 1.65 µM | TGI (NCI-H23 lung): 3.26 µM | GI50 (M14 melanoma): 1.61 µM | TGI (M14 melanoma): 3.12 µM | GI50 (U251 CNS): 1.67 µM | TGI (U251 CNS): 3.15 µM | GI50 (OVCAR-5 ovarian): 1.69 µM | TGI (OVCAR-5 ovarian): 3.18 µM

Cc1ccc(S(=O)(=O)N/N=C/c2c(O)ccc3ccccc23)cc1
TGI (SF-539 CNS): 41.8 µM | TGI (DU-145 prostate): > 100 µM | TGI (UACC-257 melanoma): > 100 µM | TGI (BT-549 breast): 59.6 µM | TGI (NCI-H23 lung): 83.2 µM | TGI (M14 melanoma): 64.9 µM | TGI (U251 CNS): > 100 µM | TGI (OVCAR-5 ovarian): 88.2 µM | TGI (OVCAR-4 ovarian): 84.3 µM

CN(CCCn1c2c(c3ccccc3c1=O)C(=O)c1ccccc1-2)CCCn1c2c(c3ccccc3c1=O)C(=O)c1ccccc1-2
GI50 (SF-539 CNS): 0.181 µM | TGI (SF-539 CNS): 0.75 µM | GI50 (UACC-257 melanoma): 21.6 µM | TGI (UACC-257 melanoma): > 73.2 µM | GI50 (BT-549 breast): 22 µM | TGI (BT-549 breast): 83.1 µM | GI50 (NCI-H23 lung): 0.249 µM | TGI (NCI-H23 lung): 5.25 µM | GI50 (M14 melanoma): 2.31 µM | TGI (M14 melanoma): > 22.6 µM | GI50 (OVCAR-5 ovarian): 1.66 µM | TGI (OVCAR-5 ovarian): 3.59 µM | GI50 (NCI-H226 lung): 0.99 µM | TGI (NCI-H226 lung): > 36.9 µM | GI50 (OVCAR-4 ovarian): 2.26 µM | TGI (OVCAR-4 ovarian): > 100 µM
